Test results from patent publication US20020032193A1, “Use of potassium channel openers for the treatment of insulitis” (priority 2000, published 2002).

Columns and labels:
[1] = system: Rat islets; experiment: Islet recovery after streptozotocin exposure; assay type: cell-based, Sprague-Dawley rats
Method: (§1) Pancreata from Sprague-Dawley rats were collagenase digested and islets collected with a braking pipette as previously described (Sandler S et al., Endocrinology, 1987;121:1424-31). Islets were precultured free floating in RPMI 1640 medium with 10% (v/v) fetal calf serum (FCS) and 11 mM glucose for 3 days in 5% CO2 at 37° C. before experiments. Medium was changed two times during preculture. Islets were then transferred to sterile Petri dishes in KRBH (Krebs-Ringer bicarbonate with HEPES) medium with 2 mg/mL bovine serum albumin (BSA) and 5.6 mM glucose.
(§2) Stock solutions of test compounds dissolved in dimethyl sulphoxide were prepared and added to the Petri dishes. Islets were incubated in 5% CO2 at 37° C. for 30 minutes with or without test compounds and STZ in 0.9% NaCl was then added to a final concentration of 0.5 mM. Dry powder of alloxan was diluted to a stock of 50 mM just before the addition to the Petri dishes to a final concentration of 0.5 mM. The incubation continued for another 30 minutes and was terminated by the addition of 1 mL of cold KRBH. […]
About 100 islets per condition were carefully transferred to a glass tube and spun down at 800 rpm for 1 minute. […] For estimation of islet recovery, 30 islets from each condition were transferred to Petri dishes as described above and the remaining islets counted after 24 hours.

[2] = system: Rat islets; experiment: Insulin secretion and islet insulin content after streptozotocin exposure; assay type: cell-based, Sprague-Dawley rats; conditions: 24 hours; for insulin content compared to islets incubated with STZ alone / insulin secretion compared to islets incubated with STZ alone: pre-incubated with KATP channel opener, then 0.5 mM STZ
Method: as §1
(§3) Stock solutions of test compounds dissolved in dimethyl sulphoxide were prepared and added to the Petri dishes. Islets were incubated in 5% CO2 at 37° C. for 30 minutes with or without test compounds and STZ in 0.9% NaCl was then added to a final concentration of 0.5 mM. Dry powder of alloxan was diluted to a stock of 50 mM just before the addition to the Petri dishes to a final concentration of 0.5 mM. The incubation continued for another 30 minutes and was terminated by the addition of 1 mL of cold KRBH. The islets were then washed twice in KRBH and studied for morphology and insulin secretion, or cultured for 2 or 24 hours in RPMI with 10% FCS and 11 mM glucose prior to morphological and biochemical examinations.
(§4) Triplicates of five islets were transferred to 200 μl of KRBH with 2 mg/mL BSA and 16.7 mM glucose and incubated for 60 minutes in 5% CO2 at 37° C. Islets from each condition were then pooled and sonicated in 200 μl of redestilled water. A 50 μl aliquot of the homogenate was mixed with 125 μl acid ethanol (0.18 M HCl in 95% ethanol) and insulin extracted overnight. Insulin concentration in the sonicate and the culture medium was determined with radioimmunoassay.

[3] = system: Rat islets; experiment: Proinsulin and total protein biosynthesis after streptozotocin exposure; assay type: cell-based, Sprague-Dawley rats
Method: as §1, §3
For each condition duplicate samples of 20 islets were transferred to multiwell plates containing 100 μl KRBH with L-[4.5-^3H]leucine (50 μCi/ml), 2 mg/mL BSA and 16.7 mM glucose and incubated for 120 minutes in 5% C02 at 37° C. Islets were then washed in Hanks' solution supplemented with 10 mM nonradioactive leucine and subsequently sonicated in 200 μl of redestilled water. A 50 μl fraction of the aqueous homogenate was incubated for 90 minutes with insulin antibodies coupled to Sepharose beads to separate proinsulin from other labelled proteins (15). Total protein biosynthesis was obtained by precipitating the labelled proteins with trichloroacetic acid (TCA). The antibody bound and TCA precipitable radioactivity were determined in a liquid scintillation counter.

[4] = system: Rat islets; experiment: Glucose oxidation after streptozotocin exposure; assay type: cell-based, Sprague-Dawley rats
Method: as §1, §2
Groups of 10 islets were transferred to glass vials with 100 μl KRBH supplemented with D-[U^14C]glucose and nonradioactive glucose to a final concentration of 16.7 mM glucose. […] Scintillation fluid was then added to each flask and the radioactivity counted in a liquid scintillation counter.

[5] = system: Rat islets; experiment: Insulin release after alloxan exposure; assay type: cell-based, Sprague-Dawley rats; conditions: for counteraction of alloxan-induced reduction of insulin release: 0.3 mM opener, simultaneous incubation with 0.5 mM alloxan
Method: as §1, §3, §4

[6] = system: Rat islets; experiment: Glucose oxidation after alloxan exposure; assay type: cell-based, Sprague-Dawley rats; conditions: for glucose oxidation rate, of control: islets treated with 0.5 mM alloxan in the presence of opener, 24 hours
Method: as §1, §3
Groups of 10 islets were transferred to glass vials with 100 μl KRBH supplemented with D-[U^14C]glucose and nonradioactive glucose to a final concentration of 16.7 mM glucose. Triplicate samples were used. The vials were suspended in scintillation flasks, gassed with 5% CO2 and sealed airtight. The flasks were then shaken for 90 minutes at 37° C. Metabolism was stopped by injection of 100 μl of 0.05 mM antimycin A into the center vial. Immediately thereafter 250 μl hyamine hydroxide was injected into the outer flask. CO2 was released from the incubation medium by injecting 100 μl of 0.4 M Na2HPO4 solution (pH 6.0) into the center vial. […] Scintillation fluid was then added to each flask and the radioactivity counted in a liquid scintillation counter.

[7] = system: ischemic heart; conditions: Garlid KD et al., Circulation Res 1997; cited from earlier work
[8] = remaining islets after STZ 0.5 mM
[9] = recovered STZ islets at 24 hours
[10] = 0.3 mM test compound + 0.5 mM STZ

CN(N=O)C(=O)N[C@H]1C(O)O[C@H](CO)[C@@H](O)[C@@H]1O (mixture of isomers) [STZ, streptozotocin]
islet loss ([1]; STZ 0.5 mM for 30 minutes, then 24 hours culture): 40%
insulin content, of control [2, 8]: 50%
insulin secretion, of control [2, 8]: 60%
proinsulin biosynthesis, of control [3, 9]: 35%
total protein biosynthesis, of control [3, 9]: 51%
proinsulin/total protein biosynthesis ratio ([3]; recovered STZ islets at 24 hours, 23% in control islets): 15%
insulin biosynthesis, of control ([3]; remaining islets after STZ 0.5 mM, 24 hours): 35%
rate of glucose oxidation, of control ([4]; islets after STZ 0.5 mM, 24 hours): 16%

CC1=NS(=O)(=O)c2cc(Cl)ccc2N1 [diazoxide]
insulin content compared to islets incubated with STZ alone [2]: higher
insulin secretion compared to islets incubated with STZ alone [2]: higher
counteraction of alloxan-induced reduction of insulin release [5]: fully counteracted
glucose oxidation rate, of control [6]: 73%
effect in ischemic heart [7]: beneficial, cardioprotective effect

O=C1NC(=O)C(=O)C(=O)N1 [alloxan]
reduction of insulin release ([5]; 0.5 mM alloxan): 31%
decrease of glucose oxidation rate ([6]; 0.5 mM alloxan, after 24 hours): 51%

CC1(C)Oc2ccc(C#N)cc2C(N2CCCC2=O)C1O (stereo not drawn) [cromakalim]
effect in ischemic heart [7]: beneficial, cardioprotective effect

CC(C)NC1=NS(=O)(=O)c2sc(Cl)cc2N1 [6-Chloro-3-isopropylamino-4H-thieno[3,2-e]-1,2,4-thiadiazine 1,1-dioxide]
islet loss ([1]; 0.3 mM test compound preincubated 30 minutes + 0.5 mM STZ, 24 hours culture): no islet loss
insulin content compared to islets incubated with STZ alone [2]: higher
insulin secretion compared to islets incubated with STZ alone [2]: higher
insulin biosynthesis compared to islets incubated with STZ alone [3, 10]: higher
glucose oxidation rate compared to islets incubated with STZ alone [4, 10]: higher
counteraction of alloxan-induced reduction of insulin release [5]: fully counteracted
glucose oxidation rate, of control [6]: did not differ from control

CC(N/C(=N\C#N)Nc1ccncc1)C(C)(C)C (stereo not drawn) [pinacidil]
effect in ischemic heart [7]: beneficial, cardioprotective effect
